Among the test systems are SNB-19 CNS; HL-60(TB) leukemia; SF-295 CNS; M19-MEL melanoma; MOLT-4 leukemia; HOP-92 NSCLC; HOP-18 NSCLC; LXFL 529 NSCLC; DLD-1 colon; NCI-H460 lung; HCT-15 colon.
Common to all, as to assay: NCI anticancer screen, dose series, 48 h

Molecules are shown by their SMILES.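 Results reflect a 48-hour exposure of cells in 96-well plates to compound at five concentrations. At the TGI there is no net growth.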 Bounds are passed on as bounds.

With `CC(C)OCN1COCN=C1NC#N`, the TGI in the assay on SNB-19 CNS, in the assay with HL-60(TB) leukemia, in the assay with SF-295 CNS, in the assay on M19-MEL melanoma, in the assay with MOLT-4 leukemia and in the assay with HOP-92 NSCLC was > 100 µM each time. The TGI with HOP-18 NSCLC is > 100 µM; in the assay with LXFL 529 NSCLC, > 100 µM; with DLD-1 colon, 57.6 µM; with NCI-H460 lung, > 100 µM; with HCT-15 colon it was 34.2 µM.

`COc1ccc(C(=O)C(C(=O)C(=O)Nc2nc3ccc(OC)cc3s2)c2ccc(OC)cc2)cc1` (centres undefined): the TGI in the assay on SNB-19 CNS, with HL-60(TB) leukemia, in the assay with SF-295 CNS, with M19-MEL melanoma, in the assay with MOLT-4 leukemia and in the assay with HOP-92 NSCLC was > 100 µM in each case. The TGI in the assay with HOP-18 NSCLC, with LXFL 529 NSCLC, in the assay on DLD-1 colon, with NCI-H460 lung and with HCT-15 colon was > 100 µM in each case.

Take `Cc1ccccc1NC(=O)C(=O)Cc1nc2ccccc2s1`: the TGI in the assay on SNB-19 CNS, in the assay on HL-60(TB) leukemia, in the assay on SF-295 CNS, in the assay on M19-MEL melanoma, in the assay on MOLT-4 leukemia and in the assay with HOP-92 NSCLC was > 100 µM throughout. The TGI with HOP-18 NSCLC, in the assay with LXFL 529 NSCLC, with DLD-1 colon, in the assay on NCI-H460 lung and in the assay on HCT-15 colon was > 100 µM in each case.

Consider `Nc1nc(N)c(-c2ccccc2)c(C(=O)Nc2ccc(Cl)c(Cl)c2)n1`, for which the TGI with SNB-19 CNS, with HL-60(TB) leukemia, in the assay with SF-295 CNS, with M19-MEL melanoma, in the assay on MOLT-4 leukemia and in the assay on HOP-92 NSCLC was > 100 µM each time. For the same compound, the TGI in the assay on HOP-18 NSCLC, with LXFL 529 NSCLC, in the assay with DLD-1 colon, in the assay with NCI-H460 lung and in the assay with HCT-15 colon was > 100 µM throughout.

For the compound `O=C(O)/C(O)=C1/C=C(c2ccccc2)c2ccccc21`, the TGI in the assay on SNB-19 CNS is 83.9 µM; in the assay on HL-60(TB) leukemia it was 45.6 µM; in the assay with SF-295 CNS, 32.9 µM; with M19-MEL melanoma it was 60.1 µM; with MOLT-4 leukemia, 43.8 µM; with HOP-92 NSCLC, 34.8 µM. For the same compound, the TGI is 47.4 µM with HOP-18 NSCLC; 91.4 µM in the assay with LXFL 529 NSCLC; > 100 µM in the assay on DLD-1 colon; 62.7 µM in the assay on NCI-H460 lung; 50.6 µM with HCT-15 colon.

With `C=C(CO)CC(O)c1ccccc1` (centres undefined), the TGI in the assay on SNB-19 CNS, in the assay on HL-60(TB) leukemia, with SF-295 CNS, in the assay with M19-MEL melanoma, in the assay on MOLT-4 leukemia and with HOP-92 NSCLC was > 100 µM throughout. The TGI in the assay on LXFL 529 NSCLC, with DLD-1 colon, in the assay on NCI-H460 lung and in the assay on HCT-15 colon was > 100 µM throughout.

Regarding `COc1cc(C2C(C(=O)O)=C(C)Oc3cc4c(cc32)OCO4)cc(OC)c1OC` (centres undefined), the TGI in the assay on SNB-19 CNS is > 100 µM; in the assay with HL-60(TB) leukemia it was 50.8 µM; with SF-295 CNS, 59.5 µM; in the assay with M19-MEL melanoma, > 100 µM; in the assay on MOLT-4 leukemia, > 100 µM; in the assay with HOP-92 NSCLC it was > 100 µM. Besides, the TGI with HOP-18 NSCLC, in the assay with DLD-1 colon, with NCI-H460 lung and in the assay on HCT-15 colon was > 100 µM throughout.

Turning to `CSc1s[s+]c(SC)c1[O-]`, the TGI with SNB-19 CNS was > 100 µM; in the assay on HL-60(TB) leukemia, 47.1 µM; in the assay on SF-295 CNS, > 100 µM; in the assay with M19-MEL melanoma, 29.5 µM; in the assay on MOLT-4 leukemia, 48.2 µM; in the assay with HOP-92 NSCLC, > 100 µM. The TGI is > 100 µM with HOP-18 NSCLC; 38.7 µM in the assay with LXFL 529 NSCLC; 33.6 µM in the assay with DLD-1 colon; > 100 µM in the assay with NCI-H460 lung; > 100 µM in the assay on HCT-15 colon.

As for `Cc1cccc(NC(=O)CC2C(=O)Nc3ccccc3S2(=O)=O)c1C` (centres undefined), the TGI with SNB-19 CNS is > 100 µM; with HL-60(TB) leukemia, > 100 µM; in the assay with SF-295 CNS it was > 100 µM; in the assay with M19-MEL melanoma, > 100 µM; in the assay on MOLT-4 leukemia it was > 100 µM; in the assay on HOP-92 NSCLC, 37.9 µM. Also, the TGI in the assay on HOP-18 NSCLC was 61.9 µM; in the assay with LXFL 529 NSCLC, > 100 µM; with DLD-1 colon, > 100 µM; in the assay on NCI-H460 lung it was 82.4 µM; with HCT-15 colon, > 100 µM.

In the case of `COCCN1C2=CCCCC2=Nc2c(N)nc(N)nc21`, the TGI with SNB-19 CNS, in the assay with HL-60(TB) leukemia, with SF-295 CNS, in the assay with M19-MEL melanoma, in the assay with MOLT-4 leukemia and in the assay with HOP-92 NSCLC was > 100 µM throughout. Besides, the TGI in the assay with HOP-18 NSCLC, in the assay with LXFL 529 NSCLC, in the assay on DLD-1 colon, in the assay with NCI-H460 lung and in the assay on HCT-15 colon was > 100 µM throughout.

For `COC(=O)C1CCc2c(OC)ccc(OC)c2C1=O` (centres undefined), the TGI in the assay with SNB-19 CNS, in the assay with HL-60(TB) leukemia, with SF-295 CNS, with M19-MEL melanoma, in the assay with MOLT-4 leukemia and with HOP-92 NSCLC was > 100 µM each time. Besides, the TGI with HOP-18 NSCLC, in the assay with LXFL 529 NSCLC, with DLD-1 colon and in the assay with NCI-H460 lung was > 100 µM throughout.

Turning to `CNC(=O)OCc1nc(S(C)=O)n(C)c1COC(=O)NC` (centres undefined), the TGI in the assay with SNB-19 CNS is > 100 µM; with HL-60(TB) leukemia, > 100 µM; in the assay with SF-295 CNS, > 100 µM; in the assay with M19-MEL melanoma, > 63.2 µM; in the assay on MOLT-4 leukemia, > 100 µM; in the assay with HOP-92 NSCLC, > 77.8 µM. Also, the TGI in the assay with HOP-18 NSCLC is > 100 µM; with LXFL 529 NSCLC, > 51.8 µM; with DLD-1 colon, > 100 µM; in the assay on NCI-H460 lung, > 100 µM; in the assay with HCT-15 colon it was > 100 µM.

For the origin of these results see PubChem BioAssay (NCI).
